Structures can show the parent of a compound that is named as a salt.

Experimental findings from patent publication US20240216384A1, “COMPOSITION FOR PREVENTING OR TREATING METABOLIC DISEASES, CONTAINING TRICYCLO DERIVATIVE COMPOUND” (ONCOCROSS CO.,LTD., priority 2021, published 2024) are described below.

The subject of one data set is HepG2 cell line. The experiment in a line: Oleic acid-induced fat accumulation, Oil-Red O staining. Particulars: for fat accumulation inhibitory effect: HepG2 treated with oleic acid, Oil-Red O. Type of data set: cell-based. As to the method:
By treating the HepG2 cell line, a liver cancer cell line, with oleic acid, fat accumulation was induced into cells, and simultaneously, JPI-289 was treated together to identify the effect of JPI-289 on inhibiting fat accumulation using the Oil-Red O staining method. Herein, INT-747, a drug that succeeded in phase 3 clinical trials for NASH indication, was treated as a positive control group.

Data set [1] has as its system HIF-1α. Briefly: HIF-1α expression in Hep3B cells upon DMOG. Type of data set: cell-based. Particulars: 10 uM, 24 hours, DMOG 1 mM. On the procedure:
(§1) A MOA study was conducted to identify the mechanism that has a more significant effect than other PARP inhibitors as in Example 3-1. Specifically, the Hep3B cell line was treated with 300 uM H2O2 for 2 hours to generate a ROS rich situation for NASH, and treated with TCDD (Tetrachlorodibenzo-p-dioxin) at 10 nM for 24 hours to induce overexpression of TIPARP. Then, PARylation was identified, and the influences of JPI-289 (10 uM and 24 hours) and PJ34 (10 uM and 24 hours) were identified, respectively. In addition, DMOG, which induces hypoxia by inhibiting the degradation of HIF-1α, a hypoxia-related gene that appears in the early stages of fibrosis, was treated at 1 mM for 24 hours, and the influences of JPI-289 (10 uM and 24 hours) and PJ34 (10 uM and 24 hours) were also identified. In addition, as a positive control group, it was compared with INT-747, a drug that successfully completed phase 3 clinical trials for NASH indication.

The test system of another data set is PARylation. The experiment in a line: PARylation in Hep3B cells in NASH environment (H2O2, TCDD). The data set is classed as cell-based. Particulars: 10 uM, 24 hours, 300 uM H2O2, TCDD 10 nM, compared to PJ-34. As to the method:
as §1

The subject of data set [2] is high-fat diet mouse model. The experiment in a line: High-fat diet animal model: body weight, liver size and weight. Type of data set: in vivo. Particulars: 6 weeks; for liver size and weight: compared to high-fat diet group. As to the method: A high-fat diet animal model was created, and after 6 weeks, JPI-289 (JPI) and a positive control group of INT-747 (INT) were administered for a total of 6 weeks (FIG. 12), and body weight, liver size, and weight were checked. As a result, weight loss was identified in the group administered 50 mpk of JPI-289 compared to the high-fat diet group and the INT-747 administration group (FIG. 13). In addition, compared to the high-fat diet group, liver size and weight were decreased in the JPI-289 10 mpk administration group, JPI-289 50 mpk administration group, and INT-747 10 mpk administration group.

Another data set relates to TGF-beta2. The experiment in a line: TGF-beta2 inhibition at RNA level in Hep3B cells. The data set is classed as cell-based. The note with it: compared to INT-747. On the procedure: as §1
The inhibitory effects of TGF-beta2 (a downstream signal of HIF-1) by JPI-289 and INT-747 in Hep3B cell line were compared at the RNA level under the same conditions as in Example 4-1.

The next data set concerns 3T3L1 cell line. Briefly: MTT analysis of JPI-289 toxicity in preadipocyte cell line. The data set is classed as cell-based, mouse. Particulars: 0.05 to 5 uM for 24, 48, or 72 hours. On the procedure: The 3T3L1 cell line, a preadipocyte cell line, was dispensed in a 96-well plate, and treated with JPI-289 at a concentration of 0.05 to 5 uM for 24, 48, or 72 hours, and MTT analysis was performed.

Data set [3] deals with STAM™ mouse model. Briefly: STAM mouse model, short-term (3 weeks) administration. The data set is classed as in vivo. As to the method: Streptozotocin was administered on the second day after birth, and a high-fat diet was administered starting 4 weeks after birth, causing non-alcoholic steatohepatitis (NASH) at 7 to 8 weeks of age. To identify the effect of JPI-289 on NASH and early fibrosis in the STAM™ mouse model (FIG. 15) in which fibrosis is induced by steatohepatitis at 9 to 12 weeks, the drug was administered at 10 mg/kg and 50 mg/kg, respectively for a total of 3 weeks, from 6 to 9 weeks, and the fibrosis-induced area was identified (FIG. 16).
JPI-289 was administered as in Example 6-1, and the NAFLD score and ballooning score were identified as values for evaluating fatty liver.

Data set [4] relates to MCF7, PC3, and HL60 cell lines. The experiment in a line: MTT analysis of JPI-289 toxicity in multiple cell lines. The data set is classed as cell-based. On the procedure: To identify the toxicity of JPI-289 to cells, MTT analysis was performed using three cell lines: MCF7, PC3, and HL60 (indicated as Cell 1 to Cell 3 in FIG. 1, respectively). Specifically, each cell line was treated with a control group, a DMSO control group (vehicle control), and JPI-289 (10-ethoxy-8-(morpholinomethyl)-2,3,4,6-tetrahydrobenzo[h][1,6]naphthyridin-5(1H)-one dihydrochloride dihydrate) at concentrations of 0.5, 1, 5, 10, 20, and 40 uM, and then treated with MTT tetrazolium after 24, 48, and 72 hours. Then, the cell viability was measured by forming formazan crystals, dissolving the same using DMSO (dimethyl sulfoxide), and measuring the absorbance using an ELISA reader.

The subject of the next data set is TIPARP. Briefly: TIPARP expression in Hep3B cells upon TCDD. The data set is classed as cell-based. Particulars: for expression of TIPARP: 10 uM, 24 hours, upon TCDD administration (FIG. 7B). As to the method:
as §1

In data set [5] the test system is STAM™ mouse model. Briefly: STAM mouse model, long-term (6 weeks) administration. The data set is classed as in vivo. On the procedure: After administering JPI-289 (10 mg/kg) for a total of 6 weeks from 6 to 12 weeks in the same manner as in Example 6 (FIG. 19), the fibrosis area was checked.
After administering JPI-289 (10 mg/kg) for a total of 6 weeks from 6 to 12 weeks in the same manner as in Example 6, the NAFLD score and ballooning score were checked to identify the degree of inhibition of fatty liver.

Data set [6] relates to HIF-1α. The experiment in a line: HIF-1α expression in liver of high-fat diet mice, tissue immunochemical analysis. The data set is classed as in vivo. The note with it: JPI-289 50 mpk for 6 weeks, compared to PJ34 (10 mpk) or INT-747 (10 mpk). As to the method:
To identify the HIF-1 inhibitory effect of INT-747 and JPI-289 in Example 4-1 also in vivo, 5-week-old mice were placed on a high-fat diet (HFD) 1 week after introduction. After 6 weeks, JPI-289 (50 mpk), PJ34 (10 mpk), and INT-747 (10 mpk) were administered for a total of 6 weeks, respectively, and the level of HIF-1α expression in the liver was identified by tissue immunochemical analysis.

A further data set has as its system vimentin. The experiment in a line: Vimentin expression in Hep3B cells upon TCDD. Type of data set: cell-based. The note with it: compared to INT-747-treated group. As to the method:
as §1

Data set [7] relates to mouse preadipocyte cell line 3T3L1. Briefly: Adipocyte differentiation / fat accumulation, Oil-Red O staining. The note with it: for differentiation into adipocytes: 3T3L1, Oil-Red O. Type of data set: cell-based. On the procedure: To induce differentiation of mouse preadipocyte cell line 3T3L1 into adipocytes, DMEM medium containing 10% FBS was treated with insulin, dexamethasone, and isobutylmetylxanthin (IBMX). JPI-289 was treated with a differentiation medium from the start day of inducing differentiation into adipocytes to the end of differentiation. At the end of differentiation, cells were fixed and differentiated adipocytes were stained red using Oil-Red O. The degree of staining was recorded in a photograph, Oil Red was dissolved, and the O.D. value was measured using an ELISA reader.
To identify the inhibitory effect of JPI-289 at a concentration of 5 uM or less on adipocyte differentiation, a re-experiment was performed on the 3T3L1 cell line. Specifically, JPI-289s at concentrations of 0.05, 0.1, 0.25, 0.5, 1, and 2.5 uM were treated together with the differentiation culture medium, respectively, to induce differentiation into adipocytes, and the differentiation into adipocytes and fat accumulation were identified by staining using Oil-Red O.
The fat accumulation inhibitory effects of other PARP inhibitors, 5-AIQ (10 uM), PJ34 (10 uM), and olaparib (5 uM), and JPI-289 (0.25 to 2.5 uM) were compared in the mouse preadipocyte cell line 3T3L1 by the method of Example 2 above.

The subject of a further data set is PARP1. Briefly: PARP1 expression in Hep3B cells upon TCDD. The data set is classed as cell-based. Particulars: compared to INT-747-treated group. As to the method: as §1
Where [8] appears, read: 10 mg/kg, 6 weeks, compared to control group.

As for `CC[C@H]1[C@@H](O)[C@@H]2[C@H](CC[C@]3(C)[C@@H]([C@H](C)CCC(=O)O)CC[C@@H]23)[C@@]2(C)CC[C@@H](O)C[C@@H]12` [INT-747, reference compound], in the data set on HepG2 cell line, the “fat accumulation inhibitory effect” value is “about 13%”.
Consider `CCOc1cc(CN2CCOCC2)cc2[nH]c(=O)c3c(c12)NCCC3` [JPI-289, 10-ethoxy-8-(morpholinomethyl)-2,3,4,6-tetrahydrobenzo[h][1,6]naphthyridin-5(1H)-one dihydrochloride dihydrate], for which, in the data set with HIF-1α [1], the “expression of HIF-1α” value is “significantly decreased”. In the data set on PARylation, the PARylation result was “significantly inhibited”. Also, the “liver size and weight” value is recorded as “decreased” in data set [2] (10 mpk) and “significant decrease” in data set [2] (50 mpk). The body weight result in data set [2] (50 mpk, compared to high-fat diet group and INT-747 group) was “weight loss”. Moreover, the “TGF-beta2 at the RNA level” value in the data set with TGF-beta2 is listed as “significantly inhibited”. Further, the “concentration dependence of fat accumulation inhibition” value in the data set on HepG2 cell line (HepG2, high concentrations) is on record as “more effective at high concentrations”. The “fat accumulation inhibitory effect” value in the data set on HepG2 cell line was “about 21%”. The “toxicity (MTT analysis)” value in the data set on 3T3L1 cell line was “no significant effect”. Also, the NAFLD score result is “decrease” with STAM™ mouse model [3] (10 mg/kg and 50 mg/kg, 3 weeks); “significantly decreased” in the data set on STAM™ mouse model [5] (setting [8]). Further, the ballooning score result is reported as “decrease” with STAM™ mouse model [3] (10 mg/kg and 50 mg/kg, 3 weeks); “decreased” in the data set with STAM™ mouse model [5] (setting [8]). Further, the fibrosis area entry is on record as “significantly decreased” in the data set with STAM™ mouse model [3] (10 mg/kg and 50 mg/kg, 3 weeks (6 to 9 weeks of age)); “significantly decreased” with STAM™ mouse model [5] (10 mg/kg, 6 weeks (6 to 12 weeks), compared to Vehicle). The “overall effect versus control group” value in the data set with STAM™ mouse model [3] (administered for 3 weeks, all dose groups) was “more effective than the control group”; in the data set on STAM™ mouse model [5] (low dose for 6 weeks), “superior effect compared to the control group”. Also, the “toxicity to cells (MTT cell viability)” value is listed as “toxic” in data set [4] (concentrations of 20 and 40 uM); “not toxic” in data set [4] (up to a concentration of 10 uM, for 72 hours). Moreover, in the data set with TIPARP, the “expression of TIPARP” value was “significantly increased”. The TIPARP entry with TIPARP (upon TCDD, compared to INT-747-treated group (FIG. 8)) is “increased”. Further, the “HIF-1α expression in the liver” value with HIF-1α [6] is recorded as “significantly decreased”. For the same molecule, the “expression of vimentin, a fibrosis marker” value in the data set with vimentin is recorded as “decreased”. In addition, the fat accumulation decrease entry in data set [7] (250 nM (0.25 uM), 3T3L1) was “about 37%”. The differentiation into adipocytes result in [7] (5 uM or higher) and in [7] (0.05 to 2.5 uM) was “inhibited depending on the concentration” throughout. In addition, in [7] (5 uM or higher, Oil-Red O), the “fat accumulation in 3T3L1 cells” value was “significantly decreased”. The “fat accumulation inhibitory effect compared to olaparib 5 uM” value in data set [7] (JPI-289 2.5 uM, 3T3L1) is “similar”. Besides, in data set [7] (JPI-289 0.25 to 2.5 uM, 3T3L1), the “fat accumulation inhibitory effect compared to 5-AIQ (10 uM) and PJ34 (10 uM)” value is given as “significantly superior”. In addition, the inhibition at 0.05 µM in data set [7] (Mus musculus, 3T3-L1, 50 nM (0.05 uM), 3T3L1, read-out: differentiation inhibitory effect) is around 15%. For the same molecule, the “expression of PARP1” value with PARP1 is “significantly decreased”.
On to `CN(C)CC(=O)Nc1ccc2[nH]c(=O)c3ccccc3c2c1` [PJ34, reference compound], for which the “expression of HIF-1α” value with HIF-1α [1] is “did not decrease”. The “expression of TIPARP” value in the data set with TIPARP is recorded as “almost no increase”.
